Assay results published in patent publication US20260294922A1, “Inhibitors of JUN N-Terminal Kinases (JNK1, JNK2, and/or JNK3) and Mitogen-Activated Protein Kinases (MAPK8, MAPK9, and/or MAPK10) and Methods of Using Same” (Baylor College of Medicine, priority 2023, published 2026).
Entries after “also recorded” stand apart in the source; their conditions may differ.

Tests used:
[1] = molecular target: T1, JNK1 (Homo sapiens, UniProt P45983); experiment: JNK1 kinase (intrinsic ATPase, Kinase-Glo) assay; assay type: biochemical; details: Table 3b; read-out: Ki(app) JNK1
Summary of the method: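 Full-length construct not stated; kinases hydrolyse ATP without peptide substrate, reaction run 30 or 60 min at 30° C, remaining ATP read by Kinase-Glo luminescence with no-kinase controls. Apparent Ki from normalized fractional activities fitted to modified Morrison tight-binding equation; orthogonal LanthaScreen binding assay gave IC50.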

[2] = molecular target: T2, JNK1 (MAPK8) (Homo sapiens, UniProt P45983); experiment: Eurofins KdSelect, JNK1 (MAPK8); assay type: binding; details: Table 2; IC50 nM; read-out: JNK1 (MAPK8), based on Kd select results
T2 construct: purchased Eurofins (KdSelect service)

[3] = molecular target: Other MAPK; experiment: Eurofins KdSelect, other MAPK; assay type: binding; details: Table 2; IC50 nM; read-out: Other MAPK, based on Kd select results
From the text: The next step was to confirm that the compounds that bound to JNK1, JNK2 or JNK3 in a competitive manner, relative to bentamapimod, were inhibitors of the ATP-dependent kinase activity in assays. In many cases, the results have been replicated at ThermoFisher using their SelectScreen technology platform. Based on knowledge about JNK inhibitors, and the results of DEC-Tec selections, a target compound profile was developed (Table 2).
The efficacy and selectivity of BEND and TANZ were used to define a realistic preliminary target compound profile (Table 2) for the next generation of JNK1-3 inhibitors for the treatment of endometriosis.

[4] = molecular target: JNK2 (Homo sapiens, UniProt P45984); experiment: JNK2 kinase (intrinsic ATPase, Kinase-Glo) assay; assay type: biochemical; details: Table 3b; read-out: Ki(app) JNK2
[5] = Phase 1 volunteers / IPF; cited from earlier work
[6] = tested on: 480 kinases; experiment: Eurofins KINOMEscan selectivity profile; assay type: binding; details: Bentamapimod and Tanzisertib at 1 μM; listed as BEND
[7] = molecular target: T1, JNK1; experiment: Promega NanoBRET intracellular target engagement (tracer K10 displacement), JNK1; assay type: cell-based; details: cyano group
[8] = molecular target: T3, JNK3 (MAPK10) (Homo sapiens, UniProt P53779); experiment: Eurofins KdSelect, JNK3 (MAPK10); assay type: binding; details: Table 2; IC50 nM; read-out: JNK3 (MAPK10), based on Kd select results
T3 construct: purchased Eurofins (KdSelect service)

[9] = molecular target: T4, MEK4 (Homo sapiens, UniProt P45985); experiment: KINOMEscan, MEK4; assay type: binding
T4 construct: purchased ThermoFisher (SelectScreen)
T4 sequence (P45985 1-399): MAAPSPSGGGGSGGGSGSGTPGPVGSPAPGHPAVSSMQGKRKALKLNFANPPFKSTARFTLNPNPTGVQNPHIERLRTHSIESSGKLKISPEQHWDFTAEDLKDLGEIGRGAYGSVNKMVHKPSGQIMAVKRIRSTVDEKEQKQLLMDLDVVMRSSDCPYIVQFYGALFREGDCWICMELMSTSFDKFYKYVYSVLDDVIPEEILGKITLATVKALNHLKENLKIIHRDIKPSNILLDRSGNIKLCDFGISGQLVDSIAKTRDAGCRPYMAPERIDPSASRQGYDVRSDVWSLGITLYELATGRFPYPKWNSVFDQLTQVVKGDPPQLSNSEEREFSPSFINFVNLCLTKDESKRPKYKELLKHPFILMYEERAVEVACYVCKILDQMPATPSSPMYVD

[10] = molecular target: T5, JNK2 (MAPK9) (Homo sapiens, UniProt P45984); experiment: Eurofins KdSelect, JNK2 (MAPK9); assay type: binding; details: Table 2; IC50 nM; read-out: JNK2 (MAPK9), based on Kd select results
T5 construct: purchased Eurofins (KdSelect service)

[11] = molecular target: JNK3 (Homo sapiens, UniProt P53779); experiment: JNK3 kinase (intrinsic ATPase, Kinase-Glo) assay; assay type: biochemical; details: Table 3b; read-out: Ki(app) JNK3
[12] = tested on: 12Z endometriotic epithelial cells; experiment: IL-1β-stimulated pro-inflammatory gene expression (qPCR) in 12Z cells; assay type: cell-based, human; details: relative to bentamapimod
From the text: These studies indicate that NanoBRET assays are an innovative technical platform to measure target engagement of CDD JNK inhibitors with the target JNK1, JNK2 or JNK3. As further evidence that JNK inhibitors address disease-relevant endpoints, biological responses of JNK inhibitors are provided herein, as measured in target tissue cellular models. 12Z immortalized endometriotic epithelial cells and patient-derived endometriotic stromal cells have been cultured with reference compound bentamapimod, CDD-2628, and CDD-2728. To exemplify the effects of CDD-2628 and CDD-2728 in the endometrial cell cultures, gene expression was measured using qPCR (expressed as fold-change relative to GAPDH, a housekeeping gene that is not affected by culture treatment effects) that reflect synthesis of inflammatory lipids (PTGS2), transformation of cells to a more migration and invasive potential (MMP-3) and chemoattractant cytokines to recruit pro-inflammatory immune cells (IL-6, IL-8).
In the culture systems employed in FIGS. 12A-12J, FIGS. 13A-13B, FIGS. 14A-14H, FIGS. 15A-15H, and FIGS. 16A-16F, the treatment of cells with IL-1β is used to mimic the peritoneal environment where IL-1β is most frequently measured at higher concentrations in patients with endometriosis (0.1 ng/mL-1 ng/mL) than in unaffected women (<0.01 ng/mL). The use of IL-1β to mimic the pro-inflammatory environment is a common method in cellular assays for endometriosis research. Although the concentrations of IL-1β in these cell cultures are higher than measured in peritoneal fluid, there are multiple other pro-inflammatory cytokines in peritoneal fluid that contribute to the pro-inflammatory environment.
Specifically, 12Z cells were plated at a density of 1×10^5 cells/well in a 12-well tissue culture plate, serum-starved overnight (17-18 h), pre-treated with vehicle (DMSO) or JNK inhibitor for 30 minutes, then stimulated with 10 ng/ml IL-1β in the presence or absence of the JNK inhibitors for 6 hours. After the 6-hour treatment, mRNA was extracted from the cells using the Qiagen RNEasy mini isolation kit and […] of mRNA was reverse transcribed into cDNA using the qScript cDNA Supermix (Quanta Biosciences). cDNA was amplified using SYBR Green Master Mix (Applied Biosystems) with quantitative Real Time PCR (BioRad CFX) using pre-designed and validated primers specific for genes encoding IL6, IL8, PTGS2/COX2, and MMP3 (BioRad). Relative quantification of these specific genes was calculated by the ΔΔCt method, normalizing their abundance relative to the internal housekeeping gene, GAPDH, followed by quantification relative to the vehicle-treated cells. Statistical analyses and visualizations were performed using a One Way ANOVA with a Tukey's multiple comparison post-hoc test on GraphPad Prism version 9.

T1 sequence (P45983 whole entry): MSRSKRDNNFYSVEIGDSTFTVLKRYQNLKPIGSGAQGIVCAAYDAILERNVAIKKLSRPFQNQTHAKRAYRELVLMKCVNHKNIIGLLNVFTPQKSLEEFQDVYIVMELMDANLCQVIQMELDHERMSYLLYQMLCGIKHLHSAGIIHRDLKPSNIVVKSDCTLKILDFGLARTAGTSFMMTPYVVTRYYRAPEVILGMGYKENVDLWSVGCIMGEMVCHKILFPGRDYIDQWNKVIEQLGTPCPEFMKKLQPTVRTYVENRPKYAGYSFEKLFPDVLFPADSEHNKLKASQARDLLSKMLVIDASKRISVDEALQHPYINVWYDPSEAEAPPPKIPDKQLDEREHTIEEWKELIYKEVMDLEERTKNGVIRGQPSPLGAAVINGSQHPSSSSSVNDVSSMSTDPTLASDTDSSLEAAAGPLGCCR
Sequence of JNK2 (P45984 whole entry): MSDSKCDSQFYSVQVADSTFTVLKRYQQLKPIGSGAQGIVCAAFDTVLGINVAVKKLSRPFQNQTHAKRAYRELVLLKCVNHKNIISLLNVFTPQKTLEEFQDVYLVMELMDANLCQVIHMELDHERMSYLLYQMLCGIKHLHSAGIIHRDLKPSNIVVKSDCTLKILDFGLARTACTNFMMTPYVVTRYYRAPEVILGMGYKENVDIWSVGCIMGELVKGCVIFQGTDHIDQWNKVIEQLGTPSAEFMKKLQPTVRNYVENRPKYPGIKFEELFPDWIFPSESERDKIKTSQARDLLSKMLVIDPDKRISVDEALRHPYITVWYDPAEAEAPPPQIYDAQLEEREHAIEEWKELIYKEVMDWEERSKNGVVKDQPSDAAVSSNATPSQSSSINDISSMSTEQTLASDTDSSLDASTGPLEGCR
T5 sequence (P45984 whole entry): as above
T2 sequence (P45983 whole entry): as the sequence (P45983 whole entry) above
Sequence of JNK3 (P53779 whole entry): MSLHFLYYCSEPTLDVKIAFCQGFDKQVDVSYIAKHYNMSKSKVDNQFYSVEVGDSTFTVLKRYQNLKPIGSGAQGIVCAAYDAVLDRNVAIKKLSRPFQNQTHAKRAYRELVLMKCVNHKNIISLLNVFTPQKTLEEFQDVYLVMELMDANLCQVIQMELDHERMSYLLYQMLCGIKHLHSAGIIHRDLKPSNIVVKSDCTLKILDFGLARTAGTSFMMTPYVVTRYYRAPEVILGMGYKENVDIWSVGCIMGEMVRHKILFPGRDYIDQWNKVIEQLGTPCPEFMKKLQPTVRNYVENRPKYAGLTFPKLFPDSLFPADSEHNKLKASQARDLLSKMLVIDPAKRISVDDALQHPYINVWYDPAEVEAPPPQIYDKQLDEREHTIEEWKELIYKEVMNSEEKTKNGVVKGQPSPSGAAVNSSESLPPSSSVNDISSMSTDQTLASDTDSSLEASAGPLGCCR
T3 sequence (P53779 whole entry): as above

Ki [1]: 220 nM
Kd [2]: 270 nM
Kd [3]: > 1000 nM
Ki [4]: 640 nM
interference with NanoBRET readout [7]: interferes with the assay readout
Kd [8]: 130 nM
MEK4 inhibition in KINOMEscan [9]: does not inhibit MEK4
Kd [10]: 170 nM
Ki [11]: 39 nM
SMILES: N#CC(c1ccnc(OCc2ccc(CN3CCOCC3)cc2)n1)c1nc2ccccc2s1 (centres unmarked) [CDD-939, bentamapimod]
clinical safety [5]: deemed safe
KINOMEscan selectivity / inhibition [6]: JNK1-3 (CMGC family), were inhibited; also recorded: highly selective
PTGS2 expression [12]: concentration-dependent decreases
IL-6 expression ([12]; listed as Bentamapimod): concentration-dependent decreases
IL-6 expression ([12]; listed as bentamapimod): equally effective
